{"source": "patent US20250205191A1", "about": "“R(-)-MDMA COMPOSITIONS AND METHODS OF TREATMENT” (EmpathBio, Inc., priority 2023, published 2025)", "key": {"[1]": {"assay": "Phase 1 clinical study, plasma pharmacokinetics", "conditions": "for AUC0-t / Cmax / t1/2: mean (SD); for Tmax: median (minimum, maximum)"}, "[2]": {"assay": "Phase 1 clinical study, urine pharmacokinetics (urinalysis)", "format": "in vivo, human"}, "[3]": {"system": "male C57BL/6J mice", "assay": "Mouse extinction of fear learning assay", "format": "in vivo", "conditions": "7.8 mg/kg IP once, vs vehicle", "experimental": "Extinction of fear learning in rodents is a useful assay to understand if compounds have the potential to enhance learning processes that may be involved in recovery from SAD and other stress and anxiety related disorders, due to its resemblance to exposure-based therapy in humans. […] Freezing behavior, an indicator of the fear response, was measured in the presence of the CS during the extinction training session (Day 1) and the day after (Day 2, Extinction Testing, in the absence of test article). Locomotor activity was measured during the initial 2-minute habituation period, prior to the presentation of the CS, on Days 1 and 2."}, "[4]": {"molecular_target": "T1, human 5-HT2C (non-edited) receptor (Homo sapiens, UniProt P28335)", "T1 construct": "expressed in transfected cells; host or cells: CHO-K1", "T1 sequence (P28335 33-458)": "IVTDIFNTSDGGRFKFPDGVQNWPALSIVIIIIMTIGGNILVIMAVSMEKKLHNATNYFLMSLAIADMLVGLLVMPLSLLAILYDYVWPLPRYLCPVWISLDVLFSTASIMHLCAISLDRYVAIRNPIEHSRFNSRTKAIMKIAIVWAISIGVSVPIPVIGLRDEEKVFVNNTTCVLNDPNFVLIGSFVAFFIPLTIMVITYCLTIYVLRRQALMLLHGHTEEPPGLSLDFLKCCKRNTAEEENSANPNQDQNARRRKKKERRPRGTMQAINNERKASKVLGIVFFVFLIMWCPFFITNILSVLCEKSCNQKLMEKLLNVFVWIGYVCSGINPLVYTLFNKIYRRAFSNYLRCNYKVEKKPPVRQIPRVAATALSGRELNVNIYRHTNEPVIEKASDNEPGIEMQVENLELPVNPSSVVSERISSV", "assay": "5-HT2C (non-edited) agonism, inositol monophosphate accumulation (HTRF), CHO-K1 recombinant cells", "format": "cell-based", "conditions": "5-HT2C (non-edited); relative to α-Me-5-HT at its EC100"}, "[5]": {"molecular_target": "T2, human 5-HT2C (edited) receptor (Homo sapiens, UniProt P28335)", "T2 sequence (P28335 33-458)": "T1 sequence (P28335 33-458)", "assay": "5-HT2C (edited) agonism, inositol monophosphate accumulation (HTRF), CHO-K1 recombinant cells", "format": "cell-based", "conditions": "5-HT2C (edited); relative to α-Me-5-HT at its EC100"}, "[6]": {"system": "healthy volunteers", "conditions": "published report (Hysek et al., 2014); cited from earlier work"}, "[7]": {"molecular_target": "T3, human 5-HT2B receptor (Homo sapiens, UniProt P41595)", "T3 construct": "expressed in transfected cells; host or cells: CHO-K1", "T3 sequence (P41595 whole entry)": "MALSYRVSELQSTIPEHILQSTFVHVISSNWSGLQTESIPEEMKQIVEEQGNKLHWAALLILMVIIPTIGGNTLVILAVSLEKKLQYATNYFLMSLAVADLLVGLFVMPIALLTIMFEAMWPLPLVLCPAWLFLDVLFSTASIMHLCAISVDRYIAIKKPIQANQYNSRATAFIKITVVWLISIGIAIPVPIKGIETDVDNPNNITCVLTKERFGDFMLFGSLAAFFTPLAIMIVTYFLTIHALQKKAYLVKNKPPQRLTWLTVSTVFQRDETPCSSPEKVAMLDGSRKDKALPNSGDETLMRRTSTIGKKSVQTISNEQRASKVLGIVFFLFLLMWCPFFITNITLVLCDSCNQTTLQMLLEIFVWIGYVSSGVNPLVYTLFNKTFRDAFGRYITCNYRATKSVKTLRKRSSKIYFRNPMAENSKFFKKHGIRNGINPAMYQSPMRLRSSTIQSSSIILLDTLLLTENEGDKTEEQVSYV", "assay": "5-HT2B agonism, inositol monophosphate accumulation (HTRF), CHO-K1 recombinant cells", "format": "cell-based", "conditions": "5-HT2B"}, "[8]": {"molecular_target": "T4, human 5-HT2A receptor (Homo sapiens, UniProt P28223)", "T4 construct": "expressed in transfected cells; host or cells: CHO-K1", "T4 sequence (P28223 whole entry)": "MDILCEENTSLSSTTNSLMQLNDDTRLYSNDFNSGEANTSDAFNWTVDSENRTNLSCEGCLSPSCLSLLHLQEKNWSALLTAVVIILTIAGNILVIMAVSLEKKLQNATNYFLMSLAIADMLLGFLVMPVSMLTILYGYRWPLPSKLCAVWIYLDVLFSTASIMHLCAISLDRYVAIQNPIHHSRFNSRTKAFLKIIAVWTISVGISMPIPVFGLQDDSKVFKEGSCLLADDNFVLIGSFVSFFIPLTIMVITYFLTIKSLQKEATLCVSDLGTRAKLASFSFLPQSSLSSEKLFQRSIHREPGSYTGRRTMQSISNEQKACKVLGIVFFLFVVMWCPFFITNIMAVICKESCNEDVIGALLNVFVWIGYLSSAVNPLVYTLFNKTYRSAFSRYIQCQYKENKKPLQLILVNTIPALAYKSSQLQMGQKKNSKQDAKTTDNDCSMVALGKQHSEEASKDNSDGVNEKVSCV", "assay": "5-HT2A agonism, inositol monophosphate accumulation (HTRF), CHO-K1 recombinant cells", "format": "cell-based", "conditions": "5-HT2A"}, "[9]": {"system": "healthy volunteers", "conditions": "racemic MDMA at 125 mg, comparison in FIG. 11; cited from earlier work"}, "[10]": {"system": "rat embryonic cortical neurons", "assay": "In vitro rat cortical neurite outgrowth", "format": "cell-based", "conditions": "250 nM positive control, vs vehicle", "experimental": "The experiment included a 0.1% sterile water vehicle negative control condition and a 250 nM donepezil positive control condition, and the number of neurites per neuron, total neurite length per neuron and branchpoints per neuron from n=12 wells per treatment were compared to the vehicle control condition."}, "[11]": {"conditions": "plasma analyte after oral 125 mg R(−)-MDMA, Day 9"}, "[12]": {"conditions": "plasma analyte after single oral 75 mg R(−)-MDMA, Day 1"}, "[13]": {"conditions": "plasma analyte after single oral 125 mg R(−)-MDMA, Day 1"}, "[14]": {"conditions": "plasma analyte after single oral 175 mg R(−)-MDMA, Day 1"}, "[15]": {"conditions": "plasma analyte after single oral 225 mg R(−)-MDMA, Day 1"}, "[16]": {"conditions": "urine analyte after EMP-01 125 mg, Day 9"}, "[17]": {"conditions": "urine analyte after single oral 75 mg R(−)-MDMA, Day 1"}, "[18]": {"conditions": "urine analyte after single oral 125 mg R(−)-MDMA, Day 1"}, "[19]": {"conditions": "urine analyte after single oral 175 mg R(−)-MDMA, Day 1"}, "[20]": {"conditions": "urine analyte after single oral 225 mg R(−)-MDMA, Day 1"}, "[21]": {"conditions": "relative to α-Me-5-HT at its EC100"}}, "data": [{"molecule": "C[C@@H](N)Cc1ccc2c(c1)OCO2", "note": "[R-MDA]", "values": [{"measurement": "time of peak of mean plasma concentration", "setting": "[1]; metabolite after oral R(−)-MDMA", "value": "approximately 12 hours postdose"}, {"measurement": "AUC0-t", "setting": "[1]; [11]", "value": "291.6730 (112.2988) h · ng/mL"}, {"measurement": "Cmax", "setting": "[1]; [11]", "value": "13.3733 (2.3199) ng/mL"}, {"measurement": "t1/2", "setting": "[1]; [11]", "value": "143.1218 (145.7332) hr"}, {"measurement": "Tmax", "setting": "[1]; [11]", "value": "12.042 (12.00, 30.00) hr"}, {"measurement": "AUC0-t", "setting": "[1]; [12]", "value": "183.2765 (40.5712) h · ng/mL"}, {"measurement": "Cmax", "setting": "[1]; [12]", "value": "7.6733 (1.6139) ng/mL"}, {"measurement": "t1/2", "setting": "[1]; [12]", "value": "39.0473 (19.0557) hr"}, {"measurement": "Tmax", "setting": "[1]; [12]", "value": "12.000 (10.00, 12.00) hr"}, {"measurement": "AUC0-t", "setting": "[1]; [13]", "value": "307.4702 (66.2889) h · ng/mL"}, {"measurement": "Cmax", "setting": "[1]; [13]", "value": "12.7950 (3.1122) ng/mL"}, {"measurement": "Tmax", "setting": "[1]; [13]", "value": "12.025 (12.00, 30.03) hr"}, {"measurement": "AUC0-t", "setting": "[1]; [14]", "value": "272.6761 (57.5614) h · ng/mL"}, {"measurement": "Cmax", "setting": "[1]; [14]", "value": "11.2820 (2.1914) ng/mL"}, {"measurement": "Tmax", "setting": "[1]; [14]", "value": "18.000 (12.00, 18.00) hr"}, {"measurement": "AUC0-t", "setting": "[1]; [15]", "value": "413.2388 (193.5541) h · ng/mL"}, {"measurement": "Tmax", "setting": "[1]; [15]", "value": "21.050 (18.00, 30.00) hr"}, {"measurement": "Ae12-24, amount excreted at the 12-24 hour collection interval", "setting": "[2]; [16]", "value": "0.9794 (0.8552) mg"}, {"measurement": "CAe, cumulative amount of drug excreted", "setting": "[2]; [16]", "value": "0.9794 (0.8552) mg"}, {"measurement": "CFe, cumulative fraction of drug excreted", "setting": "[2]; [16]", "value": "1.2746 (0.7265) %"}, {"measurement": "CLr, renal clearance rate", "setting": "[2]; [16]", "value": "5.3793 (1.5400) L/h"}, {"measurement": "Fe12-24, fraction of drug excreted at the 12-24 hour collection interval", "setting": "[2]; [16]", "value": "0.7835 (0.6842) %"}, {"measurement": "Ae12-24, amount excreted at the 12-24 hour collection interval", "setting": "[2]; [17]", "value": "0.4622 (0.1101) mg"}, {"measurement": "CAe, cumulative amount of drug excreted", "setting": "[2]; [17]", "value": "0.8510 (0.2149) mg"}, {"measurement": "CFe, cumulative fraction of drug excreted", "setting": "[2]; [17]", "value": "1.1347 (0.2865) %"}, {"measurement": "CLr, renal clearance rate", "setting": "[2]; [17]", "value": "4.6787 (0.8471) L/h"}, {"measurement": "Fe12-24, fraction of drug excreted at the 12-24 hour collection interval", "setting": "[2]; [17]", "value": "0.6163 (0.1468) %"}, {"measurement": "Ae12-24, amount excreted at the 12-24 hour collection interval", "setting": "[2]; [18]", "value": "0.7850 (0.4299) mg"}, {"measurement": "CAe, cumulative amount of drug excreted", "setting": "[2]; [18]", "value": "1.1628 (0.4509) mg"}, {"measurement": "CFe, cumulative fraction of drug excreted", "setting": "[2]; [18]", "value": "0.9302 (0.3608) %"}, {"measurement": "CLr, renal clearance rate", "setting": "[2]; [18]", "value": "3.7173 (0.9547) L/h"}, {"measurement": "Fe12-24, fraction of drug excreted at the 12-24 hour collection interval", "setting": "[2]; [18]", "value": "0.6280 (0.3440) %"}, {"measurement": "Ae12-24, amount excreted at the 12-24 hour collection interval", "setting": "[2]; [19]", "value": "0.7076 (0.4510) mg"}, {"measurement": "CAe, cumulative amount of drug excreted", "setting": "[2]; [19]", "value": "1.4788 (0.8740) mg"}, {"measurement": "CFe, cumulative fraction of drug excreted", "setting": "[2]; [19]", "value": "0.8450 (0.4995) %"}, {"measurement": "CLr, renal clearance rate", "setting": "[2]; [19]", "value": "4.3945 (2.1019) L/h"}, {"measurement": "Fe12-24, fraction of drug excreted at the 12-24 hour collection interval", "setting": "[2]; [19]", "value": "0.4043 (0.2577) %"}, {"measurement": "Ae12-24, amount excreted at the 12-24 hour collection interval", "setting": "[2]; [20]", "value": "0.8450 (0.4995) mg"}, {"measurement": "CAe, cumulative amount of drug excreted", "setting": "[2]; [20]", "value": "1.9805 (0.8173) mg"}, {"measurement": "CFe, cumulative fraction of drug excreted", "setting": "[2]; [20]", "value": "0.5432 (0.2708) %"}, {"measurement": "CLr, renal clearance rate", "setting": "[2]; [20]", "value": "5.1337 (2.2871) L/h"}, {"measurement": "Fe12-24, fraction of drug excreted at the 12-24 hour collection interval", "setting": "[2]; [20]", "value": "0.8802 (0.3633) %"}]}, {"molecule": "CNC(C)Cc1ccc2c(c1)OCO2", "note": "(racemic) [Racemic MDMA, 3,4-methylenedioxymethamphetamine, reference compound]", "values": [{"measurement": "freezing behavior", "setting": "[3]; 30 min prior to extinction training", "value": "significantly reduced freezing behavior on Days 1 and 2"}, {"measurement": "locomotor activity", "setting": "[3]", "value": "increased locomotor activity on Days 1 and 2"}, {"measurement": "Efficacy (% of a-Me-5-HT response)", "setting": "[4]", "value": 95.3, "unit": "%"}, {"measurement": "Efficacy (% of a-Me-5-HT response)", "setting": "[5]", "value": 97.7, "unit": "%"}, {"measurement": "reduction of bias to angry faces", "setting": "[6]", "value": 12.5, "unit": "%"}, {"measurement": "EC50", "setting": "[7]; CHO-K1, IP accumulation", "value": 194, "unit": "nM"}, {"measurement": "Efficacy (% of a-Me-5-HT response)", "setting": "[7]; [21]", "value": 91.2, "unit": "%"}, {"measurement": "EC50", "setting": "[8]; CHO-K1, IP accumulation", "value": 4730, "unit": "nM"}, {"measurement": "Efficacy (% of a-Me-5-HT response)", "setting": "[8]; [21]", "value": 68.4, "unit": "%"}, {"measurement": "11D-ASC response profile", "setting": "[9]", "value": "no visual hallucinations and little to no insight"}]}, {"molecule": "COc1cc2c(cc1OC)C(=O)C(CC1CCN(Cc3ccccc3)CC1)C2", "note": "(stereo not shown) [Donepezil, reference compound]", "values": [{"measurement": "branchpoints per neuron", "setting": "[10]", "value": "significantly and robustly increased"}, {"measurement": "number of neurites per neuron", "setting": "[10]", "value": "significantly and robustly increased"}, {"measurement": "total neurite length per neuron", "setting": "[10]", "value": "significantly and robustly increased"}]}]}
